According to patent US20060074101A1, “Method of treating post operative nausea and vomiting” (Helsinn Healthcare SA, priority 2003, published 2006):
Where a name gives a salt, the structure may show the parent alone. Read-outs that look alike come from different tables or passages of the source.

Assays:
[1] = in vivo, cited from earlier work
PONV = conditions: Scuderi et al. (2002); cited from earlier work
[2] = tested on: postoperative vomiting and nausea (PONV); experiment: Prevention of PONV using a single intravenous dose of palonosetron (hysterectomy patients); format: in vivo, human; conditions: for patients who had received rescue therapy: by 24 hours; for Time to Failure (hr) (median): emesis or rescue medication, whichever first; for patients who experienced one or more emetic episodes: at 12 hours; for patients who had experienced an emetic episode: at 24 hours; for patients who experienced an emetic episode: two hours postrecovery; for Nausea Mean Score / No Nausea (patients) / Severe Nausea (patients): during 24 hours after recovery
Description: A study was conducted to test the efficacy and safety of five doses of intravenously administered palonosetron for the prophylaxis of postoperative vomiting and nausea. A total of 381 women, 24-80 years of age, scheduled for abdominal or vaginal hysterectomy and having ASA physical status rating of I or II were enrolled in this study. All patients received balanced general anesthesia, including N2O plus an opiate. Study medication, palonosetron, was administered over 30 seconds through a peripheral IV line at skin closure at the conclusion of the surgical procedure.

[3] = Stability of palonosetron in solution; format: physicochemical; conditions: dependence on concentration
[4] = tested on: postoperative vomiting and nausea (PONV); experiment: Oral administration of palonosetron for prophylaxis of PONV (elective laparoscopic surgery patients); format: in vivo, human; conditions: for % no EE / % with CR: 4 hours after recovery; for % no EE / % with CR / % no EE (no emetic episodes) / % with CC (complete control) / % with CR (complete response): evaluable patients; for % no EE (no emetic episodes) / % with CC (complete control) / % with CR (complete response): 24 hours after recovery; for Nausea Mean Score / No Nausea (patients) / Severe Nausea (patients): during 24 hours after recovery; for patients free from emetic episodes: first 4 hours of recovery
Description: A study was performed to test the efficacy, safety, and pharmacokinetics of five doses of orally administered palonosetron for the prophylaxis of postoperative vomiting and nausea. Three hundred fifty-one patients, 308 women and 43 men, 19-75 years of age, scheduled for elective laparoscopic surgical procedures and having an ASA physical status rating of I and II were enrolled in this study. All patients received balanced general anesthesia, including […] plus an opiate. Doses of palonosetron were calculated based on thee patient's body weight at the screening visit, rounded to the nearest kilogram. Each dose was diluted to a total volume of 25 mL by adding sterile water to the dosing cup. The dosing cup was rinsed with 25 mL of sterile water and the patient also swallowed this 25 mL. Study medication was administered 2 hours prior to scheduled induction of anesthesia for surgeries requiring nasogastric suction and 1 hour prior to scheduled induction of anesthesia for all other laparoscopic surgical procedures.

[5] = 0.1 μg/kg IV, 24 hours after recovery, evaluable patients
[6] = 0.3 μg/kg IV, 4 hours after recovery
[7] = 0.3 μg/kg IV, 24 hours after recovery, evaluable patients
[8] = 1 μg/kg IV, 4 hours after recovery
[9] = 1.0 μg/kg IV, 24 hours after recovery, evaluable patients
[10] = 3.0 μg/kg IV, 24 hours after recovery, evaluable patients
[11] = 30 μg/kg IV, 4 hours after recovery
[12] = 30 μg/kg IV, 24 hours after recovery, evaluable patients

SMILES: CN1C2CCCC1CC(NC(=O)c1nn(C)c3ccccc13)C2 (stereo not shown) [Kytril, granisetron hydrochloride]
- plasma half-life [1]: 1.77 to 17.73 h

SMILES: O=C(O[C@@H]1C[C@@H]2C[C@H]3C[C@H](C1)N2CC3=O)c1c[nH]c2ccccc12 [dolasetron]
- serum half life [1]: approximately 7.5 hours

SMILES: Cc1nccn1CC1CCc2c(c3ccccc3n2C)C1=O (stereo not shown) [ondansetron]
- serum half life [1]: ~5.5 h
- serum half life ([1]; listed as Zofran): 5 to 6 h
- patients requiring additional therapy after treatment (PONV): 38-50%

SMILES: Cl.O=C1c2cccc3c2[C@H](CCC3)CN1[C@@H]1CN2CCC1CC2 [palonosetron, (3aS)-2,3,3a,4,5,6-Hexahydro-2-[(S)-1-Azabicyclo[2.2.2]oct-3-yl]2,3,3a,4,5,6-hexahydro-1-oxo-1Hbenz[de]isoquinoline]
- Duration of Effect: Emetic Episode (25th Percentile) ([2]; 0.1 μg/kg IV): 2.2 h
- Duration of Effect: Emetic Episode, second line of values (percentile not given) ([2]; 0.1 μg/kg IV): >24 h
- Duration of Effect: Rescue (50th percentile) ([2]; 0.1 μg/kg IV): 8.5 h
- % with CR ([2]; 0.1 μg/kg IV, 4 hours after recovery): 57%
- % no EE [2, 5]: 55%
- % with CC (complete control) [2, 5]: 34%
- % with CR (complete response) [2, 5]: 34%
- patients who had received rescue therapy ([2]; 0.1 μg/kg IV): 59.6%
- Time to Failure (hr) (median) ([2]; 0.1 μg/kg IV): 6.0 h
- Duration of Effect: Emetic Episode (25th Percentile) ([2]; 0.3 μg/kg IV): 8.4 h
- Duration of Effect: Emetic Episode, second line of values (percentile not given) ([2]; 0.3 μg/kg IV): >24 h
- Duration of Effect: Rescue (50th percentile) ([2]; 0.3 μg/kg IV): 9.9 h
- % no EE [2, 6]: 90%
- % with CR [2, 6]: 72%
- % no EE [2, 7]: 60%
- % with CC (complete control) [2, 7]: 33%
- % with CR (complete response) [2, 7]: 34%
- patients who experienced one or more emetic episodes ([2]; 0.3 μg/kg IV): 29.9%
- patients who had experienced an emetic episode ([2]; 0.3 μg/kg IV): 40.3%
- patients who had received rescue therapy ([2]; 0.3 μg/kg IV): 59.7%
- Time to Failure (hr) (median) ([2]; 0.3 μg/kg IV): 9.6 h
- patients who experienced an emetic episode ([2]; 0.3 μg/kg IV): 10.4%
- Duration of Effect: Emetic Episode (25th Percentile) ([2]; 1 μg/kg IV): 21.8 h
- Duration of Effect: Emetic Episode, second line of values (percentile not given) ([2]; 1 μg/kg IV): >24 h
- Duration of Effect: Rescue (50th percentile) ([2]; 1 μg/kg IV): 21.3 h
- % no EE [2, 8]: 92%
- % with CR [2, 8]: 69%
- % no EE [2, 9]: 73%
- % with CC (complete control) [2, 9]: 44%
- % with CR (complete response) [2, 9]: 44%
- patients who experienced one or more emetic episodes ([2]; 1 μg/kg IV): 14.5%
- patients who had experienced an emetic episode ([2]; 1 μg/kg IV): 27.4%
- patients who had received rescue therapy ([2]; 1 μg/kg IV): 51.6%
- Nausea Mean Score ([2]; 1 μg/kg IV): 0.82
- No Nausea (patients) ([2]; 1 μg/kg IV): 36.1%
- Severe Nausea (patients) ([2]; 1 μg/kg IV): 3.3%
- Time to Failure (hr) (median) ([2]; 1.0 μg/kg IV): 19.5 h
- patients who experienced an emetic episode ([2]; 1 μg/kg IV): 6.5%
- nausea reported versus placebo ([2]; 1 μg/kg, 3 μg/kg, and 30 μg/kg IV, 24-hour period following recovery): statistically significantly less nausea
- Duration of Effect: Emetic Episode (25th Percentile) ([2]; 3 μg/kg IV): 4.9 h
- Duration of Effect: Emetic Episode, second line of values (percentile not given) ([2]; 3 μg/kg IV): >24 h
- Duration of Effect: Rescue (50th percentile) ([2]; 3 μg/kg IV): 8.0 h
- % with CR ([2]; 3 μg/kg IV, 4 hours after recovery): 66%
- % no EE [2, 10]: 61%
- % with CC (complete control) [2, 10]: 30%
- % with CR (complete response) [2, 10]: 30%
- Nausea Mean Score ([2]; 3 μg/kg IV): 0.92
- No Nausea (patients) ([2]; 3 μg/kg IV): 34.8%
- Severe Nausea (patients) ([2]; 3 μg/kg IV): 3.0%
- Time to Failure (hr) (median) ([2]; 3.0 μg/kg IV): 7.3 h
- Duration of Effect: Emetic Episode (25th Percentile) ([2]; 30 μg/kg IV): >24 h
- Duration of Effect: Emetic Episode, second line of values (percentile not given) ([2]; 30 μg/kg IV): >24 h
- Duration of Effect: Rescue (50th percentile) ([2]; 30 μg/kg IV): 23.2 h
- % no EE [2, 11]: 94%
- % with CR [2, 11]: 66%
- % no EE [2, 12]: 76%
- % with CC (complete control) [2, 12]: 45%
- % with CR (complete response) [2, 12]: 45%
- patients who experienced one or more emetic episodes ([2]; 30 μg/kg IV): 13.4%
- patients who had experienced an emetic episode ([2]; 30 μg/kg IV): 23.9%
- patients who had received rescue therapy ([2]; 30 μg/kg IV): 50.7%
- Nausea Mean Score ([2]; 30 μg/kg IV): 0.66
- No Nausea (patients) ([2]; 30 μg/kg IV): 47.8%
- Time to Failure (hr) (median) ([2]; 30 μg/kg IV): 15.0 h
- patients who experienced an emetic episode ([2]; 30 μg/kg IV): 4.5%
- patients free from emetic episodes ([2]; 0.3-, 1-, and 30-μg/kg IV groups (range), first 4 hours of recovery): 90-94%
- dose at which the clinical response substantially plateaus ([2]; administered intravenously or orally): about 1 microgram/kilogram of body weight
- patients who received rescue medication ([2]; palonosetron-treated patients IV (range over dose groups), at 8 hours): 35.5-50.7%
- patients who received rescue therapy ([2]; palonosetron-treated patients IV (range over dose groups), within the first 2 hours): 21-31%
- stability in solution [3]: stability of palonosetron increases in solution as its concentration decreases
- % no EE ([4]; 0.1 μg/kg oral): 73%
- % with CR ([4]; 0.1 μg/kg oral): 60%
- nausea, position of treatment group relative to other groups ([4]; 0.3 μg/kg oral, 24-hour period following recovery): intermediate to the placebo group and the other palonosetron treatment groups
- % no EE ([4]; 0.3 μg/kg oral): 72%
- % with CR ([4]; 0.3 μg/kg oral): 61%
- % no EE (no emetic episodes) ([4]; 0.3 μg/kg oral): 50%
- % with CC (complete control) ([4]; 0.3 μg/kg oral): 37%
- % with CR (complete response) ([4]; 0.3 μg/kg oral): 37%
- Nausea Mean Score ([4]; 0.3 μg/kg oral): 0.83
- No Nausea (patients) ([4]; 0.3 μg/kg oral): 44.8%
- Severe Nausea (patients) ([4]; 0.3 μg/kg oral): 3.4%
- % no EE ([4]; 1 μg/kg oral): 81%
- % with CR ([4]; 1 μg/kg oral): 70%
- % no EE (no emetic episodes) ([4]; 1 μg/kg oral): 67%
- % with CC (complete control) ([4]; 1 μg/kg oral): 58%
- % with CR (complete response) ([4]; 1 μg/kg oral): 58%
- Nausea Mean Score ([4]; 1 μg/kg oral): 0.64
- No Nausea (patients) ([4]; 1 μg/kg oral): 52.8%
- Severe Nausea (patients) ([4]; 1 μg/kg oral): 3.8%
- patients free from emetic episodes ([4]; 1.0 μg/kg oral): 72%
- % no EE ([4]; 3 μg/kg oral): 82%
- % with CR ([4]; 3 μg/kg oral): 76%
- % no EE (no emetic episodes) ([4]; 3 μg/kg oral): 63%
- % with CC (complete control) ([4]; 3 μg/kg oral): 52%
- % with CR (complete response) ([4]; 3 μg/kg oral): 52%
- Nausea Mean Score ([4]; 3 μg/kg oral): 0.65
- No Nausea (patients) ([4]; 3 μg/kg oral): 55.8%
- Severe Nausea (patients) ([4]; 3 μg/kg oral): 7.7%
- patients free from emetic episodes ([4]; 3 μg/kg oral): 81%
- % no EE (no emetic episodes) ([4]; 10 μg/kg oral): 71%
- % with CC (complete control) ([4]; 10 μg/kg oral): 57%
- % with CR (complete response) ([4]; 10 μg/kg oral): 59%
- Nausea Mean Score ([4]; 10 μg/kg oral): 0.71
- No Nausea (patients) ([4]; 10 μg/kg oral): 51.1%
- Severe Nausea (patients) ([4]; 10 μg/kg oral): 2.2%
- patients free from emetic episodes ([4]; 10 μg/kg oral): 82%
- % no EE ([4]; 30 μg/kg oral): 69%
- % with CR ([4]; 30 μg/kg oral): 63%
- % no EE (no emetic episodes) ([4]; 30 μg/kg oral): 65%
- % with CC (complete control) ([4]; 30 μg/kg oral): 51%
- % with CR (complete response) ([4]; 30 μg/kg oral): 53%
- Nausea Mean Score ([4]; 30 μg/kg oral): 0.79
- No Nausea (patients) ([4]; 30 μg/kg oral): 44.8%
- Severe Nausea (patients) ([4]; 30 μg/kg oral): 5.2%
- nausea reported versus placebo ([4]; 1, 3, 10, and 30 μg/kg oral, 24-hour period following recovery): statistically significantly less nausea
- dose at which clinical response reached a plateau ([4]; orally administered): 1 µg/kg
